Consider 13 molecules from ChEMBL document CHEMBL3400110, “Iminopyrimidinones: a novel pharmacophore for the development of orally active renin inhibitors” (Bioorg Med Chem Lett, 2015).

Calls of active or inactive are those of the source. No cut-off for these calls is given here.

Series [1] addresses T1, Renin (Homo sapiens, UniProt P00797).
T1 sequence (P00797 whole entry): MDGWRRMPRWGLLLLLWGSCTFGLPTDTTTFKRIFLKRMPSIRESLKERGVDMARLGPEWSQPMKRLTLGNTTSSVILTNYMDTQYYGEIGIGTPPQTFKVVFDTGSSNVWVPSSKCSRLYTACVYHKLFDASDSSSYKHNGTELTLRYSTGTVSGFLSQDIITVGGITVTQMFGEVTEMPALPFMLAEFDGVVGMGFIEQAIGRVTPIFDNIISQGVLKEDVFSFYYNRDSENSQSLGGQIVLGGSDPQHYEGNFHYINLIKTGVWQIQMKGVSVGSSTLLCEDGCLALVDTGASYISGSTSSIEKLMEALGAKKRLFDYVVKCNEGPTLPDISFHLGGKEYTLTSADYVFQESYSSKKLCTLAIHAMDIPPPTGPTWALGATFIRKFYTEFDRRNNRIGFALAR
The series is described as follows: Inhibition of renin (unknown origin).

Series [2] in a line: AUC (0 to 6 hrs) in rat at 10 mg/kg, po. In kind it is ADME, organism-based. Further details: time < 6 hr, dose 10 mg/kg, route oral. The settings on record: plasma.
Series [3] in a line: Permeability across human Caco2 cells. Format: ADME, cell-based. The settings on record: Caco-2, read-out: permeability.
Series [4] in a line: clinical. Conditions: human, in vivo, po.
The test system of series [5] is Rattus norvegicus. The series is described as follows: Antihypertensive activity in rat/human renin double transgenic rat model assessed as maximum reduction in mean arterial pressure at 10 mg/kg, po. In kind it is functional, Artery.
For series [6], the target named is Cathepsin D (Homo sapiens, UniProt P07339). Briefly: Inhibition of CathD (unknown origin).
Series [7] concerns the target Beta-secretase 1 (Homo sapiens, UniProt P56817). The series is described as follows: Inhibition of BACE1 (unknown origin).
Series [8] has as its target hERG (KCNH2) (Homo sapiens, UniProt Q12809). Briefly: Inhibition of human ERG at 10 uM.
Series [9] is filed under the species Homo sapiens. The series is described as follows: Clearance in human assessed per million cells. Format: ADME, cell-based.
A short description of series [10]: AUC in cynomolgus monkey at 3 mg/kg, po. Format: ADME, organism-based, Macaca fascicularis. Set-up: dose 3 mg/kg, route oral. The settings on record: plasma.
The species named for series [11] is Homo sapiens. Briefly: Inhibition of Na+ channel site 2 (unknown origin) at 10 uM.
Series [12] is described as follows: Oral bioavailability in dog at 3 mg/kg. In kind it is ADME, organism-based, Canis lupus familiaris. The settings on record: in vivo.
The target of series [13] is T2, Nuclear receptor subfamily 1 group I member 2 (Homo sapiens, UniProt O75469).
T2 sequence (O75469 whole entry): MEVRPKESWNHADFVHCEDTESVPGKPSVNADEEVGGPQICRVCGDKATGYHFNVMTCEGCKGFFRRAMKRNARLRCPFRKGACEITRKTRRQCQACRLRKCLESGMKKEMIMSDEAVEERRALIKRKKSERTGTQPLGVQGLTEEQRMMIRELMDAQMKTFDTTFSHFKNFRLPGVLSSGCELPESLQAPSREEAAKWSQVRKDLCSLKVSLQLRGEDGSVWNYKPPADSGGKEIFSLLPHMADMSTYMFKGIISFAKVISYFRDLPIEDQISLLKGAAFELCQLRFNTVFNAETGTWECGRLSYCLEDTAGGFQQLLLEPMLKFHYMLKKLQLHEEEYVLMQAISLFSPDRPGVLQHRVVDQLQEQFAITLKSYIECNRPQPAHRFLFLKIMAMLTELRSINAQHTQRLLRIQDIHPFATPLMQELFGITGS
The series is described as follows: Inhibition of PXR (unknown origin). Format: ADME.

Series [14] in a line: Inhibition of pepsin (unknown origin). Further details: species or system Homo sapiens.
The nature of series [15]: AUC in dog at 3 mg/kg, po. The settings on record: plasma. Format: ADME, organism-based, Canis lupus familiaris. Set-up: dose 3 mg/kg, route oral.
The nature of series [16]: Oral bioavailability in cynomolgus monkey at 3 mg/kg. Format: ADME, organism-based, Macaca fascicularis. Conditions: in vivo.
In series [17] the test system is Rattus norvegicus. The series is described as follows: Antihypertensive activity in rat/human renin double transgenic rat model assessed as reduction in mean arterial pressure at 10 mg/kg, po after 20 hrs. The settings on record: Artery. Format: functional, organism-based. Set-up: dose 10 mg/kg.
A short description of series [18]: Protein binding in rat plasma. Format: ADME, cell-free. The settings on record: read-out: PPB (converted).
Series [19] deals with Voltage-gated inwardly rectifying potassium channel KCNH2 (Homo sapiens, UniProt Q12809). The series is described as follows: Inhibition of human ERG by voltage clamp method.
The target in series [20] is D(1A) dopamine receptor (Homo sapiens) (UniProt P21728). The series is described as follows: Inhibition of human D1 receptor at 10 uM.
The nature of series [21]: Inhibition of CYP (unknown origin). Format: ADME. The settings on record: human.
Series [22] in a line: Fraction unbound in rat plasma. In kind it is ADME, cell-free.
Series [23] relates to Rattus norvegicus. The series is described as follows: Antihypertensive activity in rat/human renin double transgenic rat model assessed as reduction in mean arterial pressure at 10 mg/kg, po after 17 hrs. Format: functional, organism-based. Further details: dose 10 mg/kg. The settings on record: Artery.
The nature of series [24]: Protein binding in human plasma. The settings on record: read-out: PPB (converted). Format: ADME, cell-free.
Series [25] deals with Sodium-dependent dopamine transporter (Homo sapiens) (UniProt Q01959). The series is described as follows: Inhibition of human dopamine transporter at 10 uM.
Series [26] concerns the target T3, Beta-secretase 2 (Homo sapiens, UniProt Q9Y5Z0).
T3 sequence (Q9Y5Z0 whole entry): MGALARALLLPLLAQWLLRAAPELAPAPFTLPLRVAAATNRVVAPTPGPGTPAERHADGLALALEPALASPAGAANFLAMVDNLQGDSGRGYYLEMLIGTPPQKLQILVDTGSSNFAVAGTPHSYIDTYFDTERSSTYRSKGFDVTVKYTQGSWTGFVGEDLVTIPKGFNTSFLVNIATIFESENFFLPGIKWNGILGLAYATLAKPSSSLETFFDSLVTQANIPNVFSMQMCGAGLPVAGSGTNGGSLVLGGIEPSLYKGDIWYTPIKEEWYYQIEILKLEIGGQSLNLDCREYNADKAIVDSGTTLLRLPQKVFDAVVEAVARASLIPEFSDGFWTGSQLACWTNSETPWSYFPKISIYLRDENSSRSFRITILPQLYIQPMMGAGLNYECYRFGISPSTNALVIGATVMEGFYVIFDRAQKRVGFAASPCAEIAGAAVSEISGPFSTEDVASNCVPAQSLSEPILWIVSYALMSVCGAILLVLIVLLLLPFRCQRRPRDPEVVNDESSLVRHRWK
The series is described as follows: Inhibition of BACE2 (unknown origin).

In series [27] the target is T4, Cathepsin E (Homo sapiens, UniProt P14091).
T4 sequence (P14091 whole entry): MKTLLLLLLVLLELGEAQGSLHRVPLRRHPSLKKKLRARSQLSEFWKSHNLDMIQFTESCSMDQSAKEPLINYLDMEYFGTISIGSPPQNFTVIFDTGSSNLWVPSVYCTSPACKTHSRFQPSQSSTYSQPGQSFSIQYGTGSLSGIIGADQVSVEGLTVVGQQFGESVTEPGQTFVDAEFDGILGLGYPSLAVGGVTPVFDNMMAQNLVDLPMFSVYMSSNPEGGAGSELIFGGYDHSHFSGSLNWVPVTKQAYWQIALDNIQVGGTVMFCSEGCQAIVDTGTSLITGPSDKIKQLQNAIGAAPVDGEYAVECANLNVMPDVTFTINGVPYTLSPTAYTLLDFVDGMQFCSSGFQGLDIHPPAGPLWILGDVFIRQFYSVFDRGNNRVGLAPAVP
Briefly: Inhibition of CathE (unknown origin).

Chain of Cathepsin D (P07339 65-162 limits assumed): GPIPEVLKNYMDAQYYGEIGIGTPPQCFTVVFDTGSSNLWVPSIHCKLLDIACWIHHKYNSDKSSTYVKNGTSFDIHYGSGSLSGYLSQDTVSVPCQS
Chain of Cathepsin D (P07339 169-412 limits assumed): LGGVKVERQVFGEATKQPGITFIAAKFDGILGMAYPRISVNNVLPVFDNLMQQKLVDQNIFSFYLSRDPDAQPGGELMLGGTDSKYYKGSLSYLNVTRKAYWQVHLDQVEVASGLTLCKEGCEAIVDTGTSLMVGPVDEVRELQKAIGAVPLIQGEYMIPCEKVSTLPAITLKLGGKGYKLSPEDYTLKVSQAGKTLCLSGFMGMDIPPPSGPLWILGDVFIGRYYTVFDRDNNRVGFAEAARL
Chain of hERG (KCNH2) (Q12809 whole entry): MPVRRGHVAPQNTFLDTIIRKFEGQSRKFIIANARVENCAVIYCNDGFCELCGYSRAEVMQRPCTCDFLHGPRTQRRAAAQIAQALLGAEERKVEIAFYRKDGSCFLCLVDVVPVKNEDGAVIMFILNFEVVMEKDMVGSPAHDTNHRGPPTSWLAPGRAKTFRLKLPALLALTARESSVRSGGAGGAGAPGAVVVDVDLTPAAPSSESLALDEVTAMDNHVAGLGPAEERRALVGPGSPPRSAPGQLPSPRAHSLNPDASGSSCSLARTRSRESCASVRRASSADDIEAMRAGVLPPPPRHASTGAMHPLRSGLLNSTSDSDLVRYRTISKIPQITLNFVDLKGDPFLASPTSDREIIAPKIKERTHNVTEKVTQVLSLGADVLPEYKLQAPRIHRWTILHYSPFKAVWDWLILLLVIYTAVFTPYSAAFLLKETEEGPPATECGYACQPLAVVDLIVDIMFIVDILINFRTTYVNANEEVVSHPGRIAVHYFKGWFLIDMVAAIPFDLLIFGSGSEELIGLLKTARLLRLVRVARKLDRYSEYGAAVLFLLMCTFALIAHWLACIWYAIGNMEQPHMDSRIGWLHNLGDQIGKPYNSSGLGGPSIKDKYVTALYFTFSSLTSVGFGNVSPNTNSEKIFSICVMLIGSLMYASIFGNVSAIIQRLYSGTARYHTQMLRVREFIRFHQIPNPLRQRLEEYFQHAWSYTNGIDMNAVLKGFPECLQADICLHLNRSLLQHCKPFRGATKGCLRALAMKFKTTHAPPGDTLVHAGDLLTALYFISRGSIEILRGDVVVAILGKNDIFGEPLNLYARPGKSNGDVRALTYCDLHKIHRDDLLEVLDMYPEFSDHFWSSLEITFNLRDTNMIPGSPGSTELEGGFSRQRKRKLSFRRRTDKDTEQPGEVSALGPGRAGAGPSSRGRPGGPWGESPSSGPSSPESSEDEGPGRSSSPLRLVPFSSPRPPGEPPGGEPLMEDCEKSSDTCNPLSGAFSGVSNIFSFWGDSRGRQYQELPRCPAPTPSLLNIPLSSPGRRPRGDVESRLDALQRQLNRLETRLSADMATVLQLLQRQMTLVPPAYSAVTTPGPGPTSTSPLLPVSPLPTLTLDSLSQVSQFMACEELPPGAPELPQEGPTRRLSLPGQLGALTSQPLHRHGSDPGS
Chain of Beta-secretase 1 (P56817 whole entry): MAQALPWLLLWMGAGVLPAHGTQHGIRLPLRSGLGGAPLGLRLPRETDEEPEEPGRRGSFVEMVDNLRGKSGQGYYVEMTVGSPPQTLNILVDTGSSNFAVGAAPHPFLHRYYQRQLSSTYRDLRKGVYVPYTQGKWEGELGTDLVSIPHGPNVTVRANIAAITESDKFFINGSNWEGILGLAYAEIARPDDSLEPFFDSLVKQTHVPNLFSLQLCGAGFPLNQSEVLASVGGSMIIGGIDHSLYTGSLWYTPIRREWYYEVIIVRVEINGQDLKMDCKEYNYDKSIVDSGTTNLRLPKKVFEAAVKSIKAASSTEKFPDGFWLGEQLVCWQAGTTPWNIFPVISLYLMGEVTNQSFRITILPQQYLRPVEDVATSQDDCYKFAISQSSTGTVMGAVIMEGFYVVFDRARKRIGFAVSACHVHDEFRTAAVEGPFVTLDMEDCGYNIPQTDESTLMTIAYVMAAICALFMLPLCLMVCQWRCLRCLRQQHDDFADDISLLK
Chain of D(1A) dopamine receptor (Homo sapiens) (P21728 whole entry): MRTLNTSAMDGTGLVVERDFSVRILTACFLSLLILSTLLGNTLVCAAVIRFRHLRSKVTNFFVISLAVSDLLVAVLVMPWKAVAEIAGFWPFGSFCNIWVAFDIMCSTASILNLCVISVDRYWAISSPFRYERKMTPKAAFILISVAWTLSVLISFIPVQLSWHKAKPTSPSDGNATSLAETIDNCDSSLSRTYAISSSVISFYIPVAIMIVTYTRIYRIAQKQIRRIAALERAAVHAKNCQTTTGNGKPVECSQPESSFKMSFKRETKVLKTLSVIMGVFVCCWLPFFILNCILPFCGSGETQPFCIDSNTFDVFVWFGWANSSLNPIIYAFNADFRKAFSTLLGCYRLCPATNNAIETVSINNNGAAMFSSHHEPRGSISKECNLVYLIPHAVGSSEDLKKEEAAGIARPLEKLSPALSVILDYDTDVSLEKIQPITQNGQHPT
Chain of Sodium-dependent dopamine transporter (Homo sapiens) (Q01959 whole entry): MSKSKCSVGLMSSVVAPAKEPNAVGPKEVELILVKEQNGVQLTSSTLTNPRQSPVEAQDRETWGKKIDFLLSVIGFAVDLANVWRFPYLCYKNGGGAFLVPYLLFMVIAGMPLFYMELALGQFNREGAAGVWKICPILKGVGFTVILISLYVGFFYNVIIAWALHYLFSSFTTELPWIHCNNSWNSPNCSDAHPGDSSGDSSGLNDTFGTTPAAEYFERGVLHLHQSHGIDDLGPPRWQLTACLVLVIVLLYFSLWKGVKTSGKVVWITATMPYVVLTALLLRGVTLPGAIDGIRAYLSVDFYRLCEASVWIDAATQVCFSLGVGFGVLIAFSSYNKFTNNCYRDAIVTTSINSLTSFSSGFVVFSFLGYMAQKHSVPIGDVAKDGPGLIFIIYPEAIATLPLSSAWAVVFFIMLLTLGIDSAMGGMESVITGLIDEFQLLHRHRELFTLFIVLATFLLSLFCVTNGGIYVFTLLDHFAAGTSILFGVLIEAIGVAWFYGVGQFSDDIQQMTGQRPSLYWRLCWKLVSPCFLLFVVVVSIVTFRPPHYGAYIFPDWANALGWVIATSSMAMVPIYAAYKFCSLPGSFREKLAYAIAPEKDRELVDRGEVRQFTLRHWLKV
Chain of Voltage-gated inwardly rectifying potassium channel KCNH2 (Q12809 whole entry): as the sequence (Q12809 whole entry) above

As a reminder, the Ki is the equilibrium dissociation constant of an inhibitor or competing ligand from its target. The term AUC(0-t) denotes the area under the concentration-time curve up to a stated or last time point. In series [1], `CC(C)[C@]1(C)CC(=O)N(Cc2cccc(N3C[C@@H](c4ccccc4)CC3=O)c2)C(=N)N1` gave a Ki of 44 nM. The molecule further returned an AUC(0-t) at 6 h in series [2] of 2.04 µM·h. Also, the Papp in series [3] was found to be 4.2 ×10⁻⁶ cm/s.

Consider `CC(C)[C@]1(C)CC(=O)N(Cc2cccc(C(=O)N[C@@H](C)c3ccccc3)c2)C(=N)N1`, for which the affinity in series [1] corresponds to a Ki of 2.2 nM. Moreover, the area under the curve AUC(0-t) at 6 h in series [2] is 0.405 µM·h.

One may read the bioavailability as the share of a dose that reaches the circulation, judged against a reference dose that is usually intravenous. In series [4], `COCCCOc1cc(C[C@@H](C[C@H](N)[C@@H](O)C[C@H](C(=O)NCC(C)(C)C(N)=O)C(C)C)C(C)C)ccc1OC` yielded a bioavailability of 2.5%. Besides, the Activity in [5] is given as 43 mmHg.

Take `C[C@@]1(c2ccc3sccc3c2)CC(=O)N(Cc2cccc(C(=O)NCc3ccccc3)c2)C(=N)N1`: the Ki in series [1] is 82 nM; in series [6], 19500 nM; in series [7], 3.82 µM. This molecule came in with an area under the curve AUC(0-t) at 6 h in series [2] of 0.049 µM·h.

What is called inhibition is the relative decrease from the control value, in per cent. Molecule `CC(C)[C@]1(C)CC(=O)N(Cc2ccnc(N3CC[C@H](c4ccccc4)C3)c2)C(=N)N1` showed an inhibition constant Ki in series [1] of 15 nM. Moreover, in series [2], the area under the curve AUC(0-t) at 6 h stood at 0.595 µM·h. Besides, in series [8], the inhibition at 10 µM was found to be 72%.

In [1], `CC(C)[C@]1(C)CC(=O)N(Cc2ccnc(N3C[C@@H](c4ccccc4)CC3=O)c2)C(=N)N1` returned a Ki of 6 nM. Moreover, in series [2], the exposure AUC(0-t) at 6 h is 2.44 µM·h. For the same molecule, testing at 10 µM in series [8] gave an inhibition of 77%.

Take `CC(C)[C@]1(C)CC(=O)N(Cc2cccc(C(=O)NCc3ccccc3)c2)C(=N)N1`: the inhibition constant (Ki) in [1] is 56 nM; in [6], 2700 nM; in series [7] it was over 10 µM. For the same molecule, the AUC(0-t) at 6 h in series [2] turned out to be 0.031 µM·h. Further, in series [3], the Papp turned out to be 0.09 ×10⁻⁶ cm/s. The CL in [9] came out at 3.7 µL/min.

`CC(C)[C@]1(C)CC(=O)N(Cc2cccc(C(=O)N[C@H](C)c3ccccc3)c2)C(=N)N1` showed a Ki in [1] of 86 nM. This molecule returned an exposure AUC(0-t) at 6 h in series [2] of 0.173 µM·h.

In series [1], `CC(C)[C@]1(C)CC(=O)N(Cc2cccc(N3CC(c4cccc(Cl)c4)CC3=O)c2)C(=N)N1` (stereo partly drawn) displayed a Ki of 2 nM. The molecule further returned an inhibition at 10 µM in series [8] of 92%.

Broadly, the AUC is concentration integrated over time. In general, IC50 refers to the point on the concentration scale where inhibition reaches its midpoint. Take `CC(C)[C@]1(C)CC(=O)N(Cc2cc(F)cc(C(=O)N[C@@H](C)c3ccccc3)c2)C(=N)N1`: the inhibition constant Ki in series [1] was 0.6 nM; in [6], 180 nM; in [14] it was over 10 µM; in series [7] it was over 10 µM; in series [26], 480 nM; in series [27], 1100 nM. For the same molecule, the AUC(0-t) at 6 h in [2] stood at 6.52 µM·h. Also, the AUC in series [10] is 1 µM·h; in series [15], 3 µM·h. The inhibition in series [11] is 79%; in series [20] it was 64%; in [25], 51%. The figures for the bioavailability in [12] and in series [16] were 38% and 9%, respectively. Besides, the INH in series [13] and in series [21] was over 30 µM in each case. The Activity in series [5] was found to be 66 mmHg. Besides, the result in [17] and in series [23] was Active. In addition, the fraction unbound is 0.059 in [18], 0.059 in series [22] and 0.058 in series [24]. The molecule further had an IC50 in series [19] of 9 µM. Further, the CL in series [9] was 4 µL/min.

As for `CN[C@H](CNC(=O)N1CCC[C@@H]([C@@H](OCCNC(=O)OC)c2cccc(Cl)c2)C1)C[C@H]1CCCOC1` [VTP-27999], the IC50 in series [1] turned out to be 0.5 nM.

Consider `CC(C)[C@]1(C)CC(=O)N(Cc2cccc(N3C[C@H](c4ccccc4)CC3=O)c2)C(=N)N1`, for which, in [1], the inhibition constant Ki amounted to 420 nM.

In series [1], `CC(C)[C@]1(C)CC(=O)N(Cc2cc(F)cc(N3C[C@@H](c4ccccc4)CC3=O)c2)C(=N)N1` had a Ki of 19 nM. Moreover, the area under the curve AUC(0-t) at 6 h in series [2] is 2.25 µM·h. In addition, in series [8], testing at 10 µM gave an inhibition of 85%. Besides, in series [3], the Papp came to 6.7 ×10⁻⁶ cm/s. Also, in series [9], the CL stood at 7.6 µL/min.
